From PubChem BioAssay (NCI)
Where “and” joins values, the source holds several entries; their conditions need not be identical. Identical values can stand only once.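 Briefly, cells in 96-well plates were exposed to five compound concentrations for 48 h, and endpoints were estimated by linear interpolation. GI50 = concentration required for 50% inhibition of growth. TGI: total growth inhibition.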

What was measured:
Experiment in all cases: DTP human tumour cell line panel, 48 h
[1] = tested on: 786-0 renal
[2] = tested on: HCT-15 colon
[3] = tested on: SK-OV-3 ovarian
[4] = tested on: SF-268 CNS
[5] = tested on: MOLT-4 leukemia
[6] = tested on: LOX IMVI melanoma
[7] = tested on: PC-3 prostate
[8] = tested on: KM12 colon
[9] = tested on: K-562 leukemia
[10] = tested on: CAKI-1 renal

## NC(=S)N/N=C/c1ccc(OC(=O)COc2cc(Cl)c(Cl)cc2Cl)cn1
[1]
  GI50: 3.54 µM
  TGI: > 100 µM
[2]
  GI50: 6.84 µM
  TGI: > 100 µM
[3]
  GI50: 8.49 µM
  TGI: > 100 µM
[4]
  GI50: 3.52 µM
  TGI: 43.6 µM
[5]
  GI50: 4.53 µM
  TGI: > 100 µM
[6]
  GI50: 3.09 µM
  TGI: 26.6 µM
[7]
  GI50: 4.59 µM
  TGI: > 100 µM
[8]
  GI50: 5.68 µM
  TGI: > 100 µM
[9]
  GI50: 5.56 µM
  TGI: > 100 µM
[10]
  GI50: 3.97 µM
  TGI: > 100 µM

## Cc1ccc(CNc2ccc3nc(CCC4CCCCC4)[nH]c3c2)cc1
[1]
  GI50: 2.12 µM
  TGI: 4.93 µM
[2]
  GI50: 1.94 µM
  TGI: 6.82 µM
[3]
  GI50: 2.17 µM
  TGI: 5.44 µM
[4]
  GI50: 3.08 µM
  TGI: > 100 µM
[5]
  GI50: 2.76 µM
  TGI: 9.71 µM
[6]
  GI50: 1.74 µM
  TGI: 3.19 µM
[7]
  GI50: 2.39 µM
  TGI: 8.61 µM
[8]
  GI50: 2.83 µM
  TGI: 9.05 µM
[9]
  GI50: 2.1 µM
  TGI: 5.47 µM
[10]
  GI50: 2.67 µM
  TGI: 7.03 µM

## O=C1C2CCN(CC2)C1CN1CCOCC1 (stereo not given)
[1]
  TGI: 3.55 µM
[2]
  TGI: 4.94 µM
[3]
  TGI: 31.7 µM
[4]
  TGI: 34.3 µM
[5]
  TGI: 13.8 µM
[6]
  TGI: 12.1 µM
[7]
  TGI: 34.7 µM
[8]
  TGI: 30.8 µM
[9]
  TGI: 20.3 µM
[10]
  TGI: 4.09 µM

## CCSC[C@@H]1C[C@](O)(c2ccc(Cl)cc2)[C@@H](c2ccc(Cl)cc2)O1
[1]
  GI50: 17 µM
  TGI: 31.9 µM
[2]
  GI50: 18.8 µM
  TGI: 38.7 µM
[3]
  GI50: 22.4 µM
  TGI: 60.2 µM
[4]
  GI50: 18.5 µM
  TGI: 35.7 µM
[5]
  GI50: 17.7 µM
  TGI: 43.6 µM
[6]
  GI50: 18.5 µM
  TGI: 40.7 µM
[7]
  GI50: 20 µM
  TGI: 39.1 µM
[8]
  GI50: 15.4 µM
  TGI: 30.9 µM
[9]
  GI50: 18.8 µM
  TGI: 44.2 µM
[10]
  GI50: 27.6 µM
  TGI: 63.2 µM

## Fc1cccc(COc2ccc(Nc3ncnc4onc(-c5ccccc5)c34)cc2)c1
[1]
  GI50: 0.691 µM
  TGI: 21.2 µM
[2]
  GI50: 2.43 µM
  TGI: > 100 µM
[3]
  GI50: 0.459 µM
  TGI: > 100 µM
[4]
  GI50: 0.384 µM
  TGI: > 100 µM
[5]
  GI50: 0.27 µM
  TGI: > 100 µM
[6]
  GI50: 0.125 µM
  TGI: > 100 µM
[7]
  GI50: 0.262 µM
  TGI: > 100 µM
[8]
  GI50: 0.173 µM
  TGI: > 38.4 µM
[9]
  GI50: 0.101 µM
  TGI: > 100 µM
[10]
  GI50: 0.573 µM
  TGI: > 100 µM

## O=C1c2c(c(=O)[nH]c3ccccc23)[C@H](c2ccccc2)[C@@H]2CCCN12
[1]
  GI50: 4.61 µM
  TGI: > 100 µM
[2]
  GI50: 3.37 µM
  TGI: > 100 µM
[3]
  GI50: 9.56 µM
  TGI: 80 µM
[4]
  GI50: 3.68 µM
  TGI: 23 µM
[5]
  GI50: 5.12 µM
  TGI: 39.2 µM
[6]
  GI50: 2.3 µM
  TGI: 11.8 µM
[7]
  GI50: 6.2 µM
  TGI: > 100 µM
[8]
  GI50: 3.08 µM
  TGI: 13.6 µM
[9]
  GI50: 5.63 µM
  TGI: > 100 µM
[10]
  GI50: 17.6 µM
  TGI: 68.2 µM

## Cc1ccc(OCC2CO2)c(Br)c1 (stereo not given)
[1]
  TGI: 62 µM
[2]
  TGI: 29.2 µM
[3]
  TGI: 58.5 µM
[4]
  TGI: 42.6 µM
[5]
  TGI: 70.4 µM
[6]
  TGI: 30.4 µM
[7]
  TGI: > 100 µM
[8]
  TGI: > 100 µM
[9]
  TGI: 71.6 µM
[10]
  TGI: > 100 µM

## COc1cc2nc(Nc3cccc(Cl)c3)nc(N)c2cc1OC
[1]
  GI50: 1.85 µM
  TGI: 3.73 µM
[2]
  GI50: 2.62 µM
  TGI: 10.4 µM
[3]
  GI50: 18.1 µM
  TGI: 32.7 µM
[4]
  GI50: 6.41 µM
  TGI: 19.9 µM
[5]
  GI50: 2.78 µM
  TGI: 11.4 µM
[6]
  GI50: 2.45 µM
  TGI: 6.14 µM
[7]
  GI50: 6.82 µM
  TGI: 21 µM
[8]
  GI50: 4.07 µM
  TGI: 15.7 µM
[9]
  GI50: 3.67 µM
  TGI: > 36.1 µM
[10]
  GI50: 12.3 µM
  TGI: 27.9 µM

## CCOC(=O)C(=Cc1ccc(C#N)cc1)C(=O)OCC
[1]
  GI50: 1.84 µM
  TGI: 3.88 µM
[2]
  GI50: 2.03 µM
  TGI: 6.17 µM
[3]
  GI50: 9.86 µM
  TGI: 21.5 µM
[4]
  GI50: 2.29 µM
  TGI: 7.57 µM
[5]
  GI50: 3.09 µM
  TGI: 11.5 µM
[6]
  GI50: 1.8 µM
  TGI: 3.87 µM
[7]
  GI50: 2.28 µM
  TGI: 4.9 µM
[8]
  GI50: 2.86 µM
  TGI: 8.8 µM
[9]
  GI50: 3.44 µM
  TGI: > 100 µM
[10]
  GI50: 2.12 µM
  TGI: 5.37 µM

## Cn1ncc(Cl)c1-c1cc(C(=O)N[C@H](CN)Cc2cccc(F)c2)sc1Cl
[1]
  GI50: 0.0578 µM and 0.0899 µM
  TGI: 1.85 µM and 4.12 µM
[2]
  GI50: 1.44 µM and 2.59 µM
  TGI: > 10 µM and 16.2 µM
[3]
  GI50: 0.242 µM and 0.34 µM
  TGI: 4.58 µM and 7.05 µM
[4]
  GI50: 1.72 µM and 3.64 µM
  TGI: > 9.54 µM and 17.1 µM
[5]
  GI50: 0.196 µM and 0.123 µM
  TGI: 3.13 µM and 3.51 µM
[6]
  GI50: 1.08 µM and 2.85 µM
  TGI: 2.91 µM and 11.3 µM
[7]
  GI50: 0.32 µM and 0.554 µM
  TGI: > 5.56 µM and 10.2 µM
[8]
  GI50: 0.467 µM and 0.835 µM
  TGI: 3.51 µM and 8.31 µM
[9]
  GI50: 1.33 µM and 2.24 µM
  TGI: 5.16 µM and 6.74 µM
[10]
  GI50: 1.45 µM and 3.03 µM
  TGI: > 9.48 µM and 15.5 µM

## CCC(CC)n1cnc2c(-c3cnc(N)cn3)nc(N3CC4CCC(C3)O4)nc21
[1]
  GI50: 0.237 µM
  TGI: > 100 µM
[2]
  GI50: 0.432 µM
  TGI: > 100 µM
[3]
  GI50: 0.142 µM
  TGI: 0.789 µM
[4]
  GI50: 0.566 µM
  TGI: > 100 µM
[5]
  GI50: 0.322 µM
  TGI: 53.4 µM
[6]
  GI50: 0.428 µM
  TGI: > 100 µM
[7]
  GI50: 0.104 µM
  TGI: > 100 µM
[8]
  GI50: 0.377 µM
  TGI: > 100 µM
[9]
  GI50: 0.854 µM
  TGI: > 100 µM
[10]
  GI50: 0.108 µM
  TGI: 1.73 µM

## Cc1cc(OCc2nnc3n2S(=O)(=O)c2ccccc2N3C)ccc1Cl
[1]
  TGI: 32.7 µM
[2]
  TGI: > 100 µM
[3]
  TGI: 37.4 µM
[4]
  TGI: 68 µM
[5]
  TGI: > 100 µM
[6]
  TGI: > 100 µM
[7]
  TGI: > 100 µM
[8]
  TGI: > 100 µM
[9]
  TGI: > 100 µM
[10]
  TGI: > 100 µM

## CSc1ccc(C2=NN(C(C)=O)C(c3ccc(-c4cc(Cl)c(Cl)cc4Cl)o3)C2)cc1 (stereo not given)
[1]
  GI50: 18.9 µM
  TGI: 32.9 µM
[2]
  GI50: 14.8 µM
  TGI: 28 µM
[3]
  GI50: 16.7 µM
  TGI: 38.8 µM
[4]
  GI50: 16.3 µM
  TGI: 32.2 µM
[5]
  GI50: 12.1 µM
  TGI: 35.3 µM
[6]
  GI50: 15.4 µM
  TGI: 28.7 µM
[7]
  GI50: 11.2 µM
  TGI: 30.7 µM
[8]
  GI50: 16.9 µM
  TGI: 35.7 µM
[9]
  GI50: 14.8 µM
  TGI: 34.2 µM
[10]
  GI50: 19.2 µM
  TGI: 43.2 µM
